Test system: 996289-038-R-J1-PDC complex spheroid viability
Assay: Anticancer human tumor 996289-038-R-J1-PDC patient-derived colon adenocarcinoma cell line growth inhibition [CLK]
Details: for IC50: curve of first compound; for viability, T/C: stronger effect = lower value
Source text: A high-throughput screen of multi-cell type tumor spheroids was designed to identify active combinations of […] and targeted small molecules. Complex spheroids include a stromal component modeled by human endothelial cells (HUVEC) and fibroblasts modeled by human mesenchymal stem cells (MSCs). The concentration ranges selected for each drug and investigational agent were based upon clinically achievable concentrations if the clinical Cmax of the agent was known.
Compounds. The drugs and investigational agents: cirtuvivint (SM08502; NSC835563), CC-671 (NSC850746), vemurafenib (NSC761431), tapotoclax (NSC804041), sotorasib (NSC818433), adagrasib (NSC831453), MRTX-1133 (NSC836407), BAY2416964 (NSC825713), copanlisib (NSC816437), inavolisib (NSC800729), abemaciclib (NSC768073), osimertinib (NSC779217), entinostat (NSC756642), eltanexor (KPT-8602, NSC794443), venetoclax (NSC766270), ceralasertib (NSC777638), bortezomib (NSC756655), olaparib (NSC753686), talazoparib (NSC767125), alisertib (NSC759677), peposertib (NSC802822), gemcitabine (NSC613327), 5-fluorouracil (NSC19893), SN-38 (NSC673596), oxaliplatin (NSC266046), paclitaxel (NSC125973), and doxorubicin (NSC123127), were obtained from the National Cancer Institute (NCI) Developmental Therapeutics Program Chemical Repository. The FDA-approved anticancer drug set is available from the Developmental Therapeutics Program at https://dtp.cancer.gov/organization/dscb/obtaining/available plates.htm. […] The stock solutions were prepared in dimethyl sulfoxide (DMSO, Sigma-Aldrich, St. Louis, MO, cat. D2650), except for the platinum complexes which were prepared in saline (Quality Biological, Gaithersburg, MD, cat. 114-055-101), at 800-fold the tested concentration and stored at -70 degrees C prior to their use. All drugs and investigational agents were tested over a range starting from a high concentration at or near the clinical Cmax and decreasing in half-log increments. If the clinical Cmax for an agent had not been determined, the highest concentration tested was 10 microM.
Cell Culture. All cells were maintained in an incubator at 37 degrees C and 5% CO2 with 95% humidity. The PDC lines were cultured according to standard operating procedures established by the NCI PDMR. Briefly, all PDCs were thawed and cultured in Matrigel-coated flasks prepared with a working solution of 1X Ham's F-12 nutrient mix, without supplementation (Invitrogen, Waltham, MA, cat. 11765054), 100 U/mL penicillin-streptomycin (Invitrogen, cat. 15140122), and 2.5% Matrigel (Corning Inc., Corning, NY, cat. 354248) for the first three passages. The 947758-054-R-J2-PDC line was cultured in 6B/Colon 1A media, which includes advanced DMEM/F-12 (Thermo Fisher Scientific, cat. 12634028), 10 mM HEPES (Thermo Fisher Scientific, cat. 15630080), 1X GlutaMAX supplement (Thermo Fisher Scientific, cat. 35050061), 0.1 mg/mL primocin (InvivoGen, cat. ant-pm-2), 10% defined fetal bovine serum, heat inactivated (HyClone Laboratories Inc., cat. SH30070.03HI), 1.25 mM N-Acetyl-L-cysteine (Sigma-Aldrich, cat. A9165), 10 mM nicotinamide (Sigma-Aldrich, cat. N0636), 1X B-27 supplement (Thermo Fisher Scientific, cat. 17504044), 1X N-2 supplement (Thermo Fisher Scientific, cat. 17502048), and 10 microM Y-27632 dihydrochloride (Tocris Bioscience, cat. 1254). The 876862-298-R-J1-PDC was cultured in 6E media, which includes all 6B/Colon 1A media components plus 50% L-WRN conditioned media (ATCC, cat. CRL-3276), 50 ng/mL recombinant human EGF recombinant protein (hEGF; Thermo Fisher Scientific, cat. PHG0311), 10 ng/mL recombinant human fibroblast growth factor 10 (hGFG-10; PeproTech, cat. 100-26), 1 ng/mL recombinant human fibroblast growth factor 2 (hFGF-2; PeproTech, cat. 100-18B), and 1 µM prostaglandin E2 (PGE2; Tocris, cat. 2296). The 227483-062-R1-J1-PDC line was cultured in Panc media, containing all 6E components except hFGF-2, with the addition of 500 nM SB-431542 (Selleckchem, cat. S1067) and 10 nM gastrin (Tocris, cat. 3006). […]
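Also: spheroids exposed to the agents for 7 days before readout.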

Question: For `NC(=O)C(=Cn1cnc(-c2cc(C(F)(F)F)cc(C(F)(F)F)c2)n1)c1cncnc1` + CN1CCN(c2cc(C(=O)Nc3cc4cc(-c5cnn(C)c5)ccc4cn3)ccn2)CC1, which IC50 (second compound 0.0316 µM) is on record?
Answer: 53.7 nM

Question: And the IC50 (second compound 0.1 µM)?
Answer: 29.4 nM

Question: And the IC50 (second compound 0.316 µM)?
Answer: < 9.49 nM

Question: And the IC50 (second compound 1 µM)?
Answer: < 9.49 nM

Question: What about the IC50 (second compound 3.16 µM) of the same compound?
Answer: < 9.49 nM

Question: And the IC50 (second compound 10 µM)?
Answer: < 9.49 nM

Question: And the viability, T/C (second compound 0.0316 µM, first compound 0.00949 µM)?
Answer: 73.6%

Question: What about the viability, T/C (second compound 0.0316 µM, first compound 0.03 µM) of the same compound?
Answer: 64%

Question: And the viability, T/C (second compound 0.0316 µM, first compound 0.0949 µM)?
Answer: 36.1%

Question: What about the viability, T/C (second compound 0.0316 µM, first compound 0.3 µM) of the same compound?
Answer: 18.6%

Question: What about the viability, T/C (second compound 0.0316 µM, first compound 0.949 µM) of the same compound?
Answer: 10.6%

Question: What about the viability, T/C (second compound 0.0316 µM, first compound 3 µM) of the same compound?
Answer: 11.7%

Question: And the viability, T/C (second compound 0.1 µM, first compound 0.00949 µM)?
Answer: 68%

Question: And the viability, T/C (second compound 0.1 µM, first compound 0.03 µM)?
Answer: 49.7%

Question: What about the viability, T/C (second compound 0.1 µM, first compound 0.0949 µM) of the same compound?
Answer: 24.9%

Question: What about the viability, T/C (second compound 0.1 µM, first compound 0.3 µM) of the same compound?
Answer: 11.1%

Question: And the viability, T/C (second compound 0.1 µM, first compound 0.949 µM)?
Answer: 4.64%

Question: What about the viability, T/C (second compound 0.1 µM, first compound 3 µM) of the same compound?
Answer: 5.12%

Question: What about the viability, T/C (second compound 0.316 µM, first compound 0.00949 µM) of the same compound?
Answer: 33.9%

Question: What about the viability, T/C (second compound 0.316 µM, first compound 0.03 µM) of the same compound?
Answer: 19.1%

Question: And the viability, T/C (second compound 0.316 µM, first compound 0.0949 µM)?
Answer: 2.74%

Question: What about the viability, T/C (second compound 0.316 µM, first compound 0.3 µM) of the same compound?
Answer: 0.87%

Question: And the viability, T/C (second compound 0.316 µM, first compound 0.949 µM)?
Answer: 1.43%

Question: And the viability, T/C (second compound 0.316 µM, first compound 3 µM)?
Answer: 1.38%

Question: What about the viability, T/C (second compound 1 µM, first compound 0.00949 µM) of the same compound?
Answer: 0.93%

Question: And the viability, T/C (second compound 1 µM, first compound 0.03 µM)?
Answer: 0.76%

Question: What about the viability, T/C (second compound 1 µM, first compound 0.0949 µM) of the same compound?
Answer: 0.81%

Question: And the viability, T/C (second compound 1 µM, first compound 0.3 µM)?
Answer: 1.31%

Question: What about the viability, T/C (second compound 1 µM, first compound 0.949 µM) of the same compound?
Answer: 1.15%

Question: And the viability, T/C (second compound 1 µM, first compound 3 µM)?
Answer: 2.01%

Question: And the viability, T/C (second compound 3.16 µM, first compound 0.00949 µM)?
Answer: 1.17%

Question: And the viability, T/C (second compound 3.16 µM, first compound 0.03 µM)?
Answer: 0.72%

Question: What about the viability, T/C (second compound 3.16 µM, first compound 0.0949 µM) of the same compound?
Answer: 1.2%

Question: And the viability, T/C (second compound 3.16 µM, first compound 0.3 µM)?
Answer: 1.12%

Question: What about the viability, T/C (second compound 3.16 µM, first compound 0.949 µM) of the same compound?
Answer: 1.5%

Question: What about the viability, T/C (second compound 3.16 µM, first compound 3 µM) of the same compound?
Answer: 2.18%

Question: And the viability, T/C (second compound 10 µM, first compound 0.00949 µM)?
Answer: 0.52%

Question: What about the viability, T/C (second compound 10 µM, first compound 0.03 µM) of the same compound?
Answer: 0.5%

Question: And the viability, T/C (second compound 10 µM, first compound 0.0949 µM)?
Answer: 0.74%

Question: What about the viability, T/C (second compound 10 µM, first compound 0.3 µM) of the same compound?
Answer: 0.52%

Question: What about the viability, T/C (second compound 10 µM, first compound 0.949 µM) of the same compound?
Answer: 0.45%

Question: What about the viability, T/C (second compound 10 µM, first compound 3 µM) of the same compound?
Answer: 1.52%

Question: Which IC50 (second compound 0.0316 µM) does the source give for `O=C(c1cc(Cc2n[nH]c(=O)c3ccccc23)ccc1F)N1CCN(C(=O)C2CC2)CC1` + CNC(=O)c1ccc(Nc2nc(OC3CCCC3)c3c(-c4ccc5nc(C)oc5c4)c[nH]c3n2)c(OC)c1 here?
Answer: > 10000 nM

Question: What about the IC50 (second compound 0.1 µM) of the same compound?
Answer: > 10000 nM

Question: And the IC50 (second compound 0.316 µM)?
Answer: > 10000 nM

Question: And the IC50 (second compound 1 µM)?
Answer: > 10000 nM

Question: And the IC50 (second compound 3.16 µM)?
Answer: > 10000 nM

Question: And the IC50 (second compound 10 µM)?
Answer: > 10000 nM

Question: And the viability, T/C (second compound 0.0316 µM, first compound 0.0316 µM)?
Answer: 126%

Question: And the viability, T/C (second compound 0.0316 µM, first compound 0.1 µM)?
Answer: 113%

Question: And the viability, T/C (second compound 0.0316 µM, first compound 0.316 µM)?
Answer: 113%

Question: What about the viability, T/C (second compound 0.0316 µM, first compound 1 µM) of the same compound?
Answer: 124%

Question: And the viability, T/C (second compound 0.0316 µM, first compound 3.16 µM)?
Answer: 120%

Question: And the viability, T/C (second compound 0.0316 µM, first compound 10 µM)?
Answer: 103%

Question: And the viability, T/C (second compound 0.1 µM, first compound 0.0316 µM)?
Answer: 122%

Question: And the viability, T/C (second compound 0.1 µM, first compound 0.1 µM)?
Answer: 121%

Question: What about the viability, T/C (second compound 0.1 µM, first compound 0.316 µM) of the same compound?
Answer: 116%

Question: And the viability, T/C (second compound 0.1 µM, first compound 1 µM)?
Answer: 117%

Question: What about the viability, T/C (second compound 0.1 µM, first compound 3.16 µM) of the same compound?
Answer: 114%

Question: And the viability, T/C (second compound 0.1 µM, first compound 10 µM)?
Answer: 115%

Question: What about the viability, T/C (second compound 0.316 µM, first compound 0.0316 µM) of the same compound?
Answer: 78.9%

Question: And the viability, T/C (second compound 0.316 µM, first compound 0.1 µM)?
Answer: 74.4%

Question: What about the viability, T/C (second compound 0.316 µM, first compound 0.316 µM) of the same compound?
Answer: 76.3%

Question: What about the viability, T/C (second compound 0.316 µM, first compound 1 µM) of the same compound?
Answer: 75.4%

Question: And the viability, T/C (second compound 0.316 µM, first compound 3.16 µM)?
Answer: 85.3%

Question: What about the viability, T/C (second compound 0.316 µM, first compound 10 µM) of the same compound?
Answer: 71.3%

Question: What about the viability, T/C (second compound 1 µM, first compound 0.0316 µM) of the same compound?
Answer: 70.8%

Question: What about the viability, T/C (second compound 1 µM, first compound 0.1 µM) of the same compound?
Answer: 65.8%

Question: And the viability, T/C (second compound 1 µM, first compound 0.316 µM)?
Answer: 64%

Question: What about the viability, T/C (second compound 1 µM, first compound 1 µM) of the same compound?
Answer: 60.6%

Question: And the viability, T/C (second compound 1 µM, first compound 3.16 µM)?
Answer: 69.3%

Question: And the viability, T/C (second compound 1 µM, first compound 10 µM)?
Answer: 61.3%

Question: And the viability, T/C (second compound 3.16 µM, first compound 0.0316 µM)?
Answer: 62.6%

Question: And the viability, T/C (second compound 3.16 µM, first compound 0.1 µM)?
Answer: 57.5%

Question: And the viability, T/C (second compound 3.16 µM, first compound 0.316 µM)?
Answer: 58.1%

Question: What about the viability, T/C (second compound 3.16 µM, first compound 1 µM) of the same compound?
Answer: 60.2%

Question: What about the viability, T/C (second compound 3.16 µM, first compound 3.16 µM) of the same compound?
Answer: 64%

Question: And the viability, T/C (second compound 3.16 µM, first compound 10 µM)?
Answer: 58.5%

Question: What about the viability, T/C (second compound 10 µM, first compound 0.0316 µM) of the same compound?
Answer: 62.6%

Question: And the viability, T/C (second compound 10 µM, first compound 0.1 µM)?
Answer: 59.4%

Question: What about the viability, T/C (second compound 10 µM, first compound 0.316 µM) of the same compound?
Answer: 61%

Question: What about the viability, T/C (second compound 10 µM, first compound 1 µM) of the same compound?
Answer: 58.3%

Question: What about the viability, T/C (second compound 10 µM, first compound 3.16 µM) of the same compound?
Answer: 61.1%

Question: What about the viability, T/C (second compound 10 µM, first compound 10 µM) of the same compound?
Answer: 52.1%

From PubChem BioAssay AID2060600 (Molecular Pharmacology Branch, DTP, NCI, 2025)
